{"source": "patent US20030022926A1", "about": "“Method for treating neuropathic pain and pharmaceutical preparation therefor” (priority 2001, published 2003)", "key": {"neuropathic pain": {"system": "neuropathic pain", "excerpt": "The patient was then referred to the Pain Clinic to benefit from neuraxial analgesia (either epidural or intrathecal catheter placement). However, long-term spinal catheter is not devoid of side effects, both related to the technique, especially the risk of infection and to the drugs used."}, "[1]": {"system": "phosphorylated cAMP response element binding protein (pCREB)"}, "[2]": {"system": "mechanical allodynia in rats with partial ligation of sciatic nerve", "excerpt": "A validated animal model of neuropathic pain was used that results from a partial ligation of one sciatic nerve in rat (Seltzer 1990). Nerve ligation and subsequent edema represents an experimental model for mechanisms operative in both nociceptive nerve pain and pain due to partial deafferentation (Asbury A, Fields H. Pain due to peripheral nerve damage: an hypothesis. Neurology 1984; 34: 1587-1590). This model thereby closely mimics the clinical situation found in several cancerous patients.\n(§1) After Institutional Animal Care Committee approval, adult male Wistar rats (Hanovre, weight 150 -180 g) underwent partial sciatic nerve ligation of the right sciatic nerve as described by Seltzer et al (Seltzer 1990). Briefly, under halothane anesthesia, the right sciatic nerve was exposed at high-thigh level and liberated from surrounding tissues. One third to one half of the nerve was then tightly ligated with silicon-treated silk suture (Prolene 7-0) before those muscle and skin layers were closed. The animals were allowed to recover for four to six weeks, lag of time sufficient to develop neuropathic pain features.\nMechanical allodynia was assessed by application of calibrated Von Frey filaments (Stoelting, Wood Dale, Ill.), ranging from 1.2 g to 28.8 g.\nThe animals were placed on a plastic mesh floor into individual boxes. After accommodation to the environment, the Von Frey filaments were applied vertically to the plantar surface of the ligated hind paw and gently bent 3-4 times over approximately 2 sec. if no response was elicited, a larger filament was applied in the same manner. The filaments were applied in increasing order until a brisk withdrawal or paw flinching occurred, that was considered as a positive response. The filament applications were repeated three times, with five to ten minutes interval between testing. The withdrawal threshold was determined as the mean of the three values.\n(§2) Only the animals which had developed satisfactory Mechanical Allodynia and Thermal Hyperalgesia were used to assess the efficacy of peripheral nerve blockade.\n(§3) The rats were anesthetized with 4% halothane inhaled concentration in 100% oxygen by face mask. An unilateral percutaneous sciatic nerve block was then performed on the right ligated side. A 25-gauge needle was introduced between the greater trochanter and the ischial tuberosity, both landmarks previously localized by palpation, according to the technique reported by Thalhammer (Thalhammer JG, et al Neurologic evaluation of the rat during sciatic nerve block with lidocaine. Anesthesiology. 1995 Apr;82(4):1013-25). Different mixtures of saline and alpha-2-adrenergic agonist were then injected in a total volume of 0.3 ml.\nA single sciatic block (SB) injection of the following drugs was realized: Saline (n=6), Saline and intramuscular (IM) clonidine 30 μg (n=11), Clonidine 15 μg (n=8), Clonidine 3 μg (n=9). The drug used in the study for peripheral nerve block was: clonidine marketed for clinical use (Catapressan®, Boehringer Ingelheim). The drug was diluted in isotonic saline.\nThe animals were tested as previously described for both Mechanical Allodynia and Thermal Hyperalgesia at day0 (5 hours after sciatic nerve injection), day 1, day 3, day 7, day 10, day 14 and day 21 post drug injection.\nFor Mechanical Allodynia, Paw withdrawal threshold (PWT) values were converted to percent of maximum possible effect (% MPE), according to the formula:\n% MPE=(post-drug infiltration threshold−baseline post-ligation threshold)/(pre-ligation threshold−baseline post-ligation threshold)×100\nValues are expressed as mean±SD. The percent maximum possible effect data were used to calculate the respective ED50 values of clonidine and clonidine combinations using linear regression."}, "[3]": {"description": "as §3"}, "[4]": {"system": "thermal hyperalgesia in rats with partial ligation of sciatic nerve", "conditions": "ligated side", "excerpt": "as §1, §2\nas §3, with “Different mixtures of saline and alpha-2-adrenergic agonist were then injected in a total volume of 0.3 ml.” left out\nValues are expressed as mean±SD."}, "[5]": {"conditions": "ipsilateral and contralateral, compared to saline controls (p<0.001)"}, "[6]": {"conditions": "one week after single peripheral nerve injection at the injury site, 30 mg as printed"}}, "note": "Read-outs that look alike come from different tables or passages of the source.", "data": [{"compound": "Clc1cccc(Cl)c1NC1=NCCN1", "note": "[clonidine, N-(2,6-dichlorophenyl)-4,5-dihydro-1H-imidazol-2-amine]", "values": [{"measurement": "duration of strong alleviation of neuropathic pain after a single femoral block injection", "setting": "neuropathic pain; clonidine alone", "value": "more than ten"}, {"measurement": "onset of the antihyperalgesic effect", "setting": "neuropathic pain; clonidine alone, femoral block", "value": "four to five"}, {"measurement": "efficacy of clonidine alone versus initial mixture", "setting": "neuropathic pain; femoral block, local anesthetic and steroid withdrawn", "value": "as effective as previous combination"}, {"measurement": "tolerance on repetitive blocks", "setting": "neuropathic pain; repetitive peripheral nerve blocks in the cancerous patient", "value": "without apparition of tolerance"}, {"measurement": "mean number of pixels in a fixed area occupied by pCREB-IR cells in the dorsal horn", "setting": "[1]; [5]", "value": "significantly reduced"}, {"measurement": "mean optical density in a fixed area occupied by pCREB-IR cells in the dorsal horn", "setting": "[1]; [5]", "value": "significantly reduced"}, {"measurement": "increase in pCREB-IR cells in the ipsilateral dorsal horn", "setting": "[1]; [6]", "value": "dramatically suppressed"}, {"measurement": "number of pCREB-IR cells in the contralateral dorsal horn", "setting": "[1]; [6]", "value": "markedly reduced"}, {"measurement": "PWT values (Paw Withdrawal threshold)", "setting": "[2]; intramuscular (IM) clonidine 30 μg, D0 (5 h)", "value": "2.6 ± 1.8", "unit": "g"}, {"measurement": "PWT values (Paw Withdrawal threshold)", "setting": "[2]; intramuscular (IM) clonidine 30 μg, D1", "value": "7.9 ± 4.2", "unit": "g"}, {"measurement": "PWT values (Paw Withdrawal threshold)", "setting": "[2]; intramuscular (IM) clonidine 30 μg, D3", "value": "4.3 ± 2.8", "unit": "g"}, {"measurement": "PWT values (Paw Withdrawal threshold)", "setting": "[2]; intramuscular (IM) clonidine 30 μg, D7", "value": "5.2 ± 2.8", "unit": "g"}, {"measurement": "PWT values (Paw Withdrawal threshold)", "setting": "[2]; intramuscular (IM) clonidine 30 μg, D10", "value": "3.6 ± 2.3", "unit": "g"}, {"measurement": "PWT values (Paw Withdrawal threshold)", "setting": "[2]; intramuscular (IM) clonidine 30 μg, D14", "value": "2.0 ± 3.3", "unit": "g"}, {"measurement": "PWT values (Paw Withdrawal threshold)", "setting": "[2]; intramuscular (IM) clonidine 30 μg, D21", "value": "3.6 ± 1.4", "unit": "g"}, {"measurement": "peak effect on mechanical allodynia, day post injection", "setting": "[2]; peripheral sciatic block 3 to 30 μg, four to six weeks after nerve injury", "value": 7, "unit": "days"}, {"measurement": "Maximal effect in alleviating Mechanical Allodynia", "setting": "[2]; sciatic block 3 μg, at D1", "value": "34.2±5.1", "unit": "% MPE"}, {"measurement": "Maximal effect in alleviating Mechanical Allodynia", "setting": "[2]; sciatic block 15 μg, at D3", "value": "40.5±6.4", "unit": "% MPE"}, {"measurement": "Maximal effect in alleviating Mechanical Allodynia", "setting": "[2]; sciatic block 30 μg, at D7", "value": "76.6±9.2", "unit": "% MPE"}, {"measurement": "PWT values (Paw Withdrawal threshold)", "setting": "[2]; sciatic block (SB) 3 μg, D0 (5 h)", "value": "4.7 ± 4", "unit": "g"}, {"measurement": "PWT values (Paw Withdrawal threshold)", "setting": "[2]; sciatic block (SB) 3 μg, D1", "value": "12.0 ± 4", "unit": "g"}, {"measurement": "PWT values (Paw Withdrawal threshold)", "setting": "[2]; sciatic block (SB) 3 μg, D3", "value": "10.3 ± 5", "unit": "g"}, {"measurement": "PWT values (Paw Withdrawal threshold)", "setting": "[2]; sciatic block (SB) 3 μg, D7", "value": "8.2 ± 4", "unit": "g"}, {"measurement": "PWT values (Paw Withdrawal threshold)", "setting": "[2]; sciatic block (SB) 3 μg, D10", "value": "7.0 ± 3", "unit": "g"}, {"measurement": "PWT values (Paw Withdrawal threshold)", "setting": "[2]; sciatic block (SB) 3 μg, D14", "value": "5.0 ± 2", "unit": "g"}, {"measurement": "PWT values (Paw Withdrawal threshold)", "setting": "[2]; sciatic block (SB) 3 μg, D21", "value": "4.3 ± 1", "unit": "g"}, {"measurement": "PWT values (Paw Withdrawal threshold)", "setting": "[2]; sciatic block (SB) 15 μg, D0 (5 h)", "value": "4.8 ± 2", "unit": "g"}, {"measurement": "PWT values (Paw Withdrawal threshold)", "setting": "[2]; sciatic block (SB) 15 μg, D1", "value": "12.6 ± 6", "unit": "g"}, {"measurement": "PWT values (Paw Withdrawal threshold)", "setting": "[2]; sciatic block (SB) 15 μg, D3", "value": "12.9 ± 5", "unit": "g"}, {"measurement": "PWT values (Paw Withdrawal threshold)", "setting": "[2]; sciatic block (SB) 15 μg, D7", "value": "8.8 ± 3", "unit": "g"}, {"measurement": "PWT values (Paw Withdrawal threshold)", "setting": "[2]; sciatic block (SB) 15 μg, D10", "value": "9.7 ± 4", "unit": "g"}, {"measurement": "PWT values (Paw Withdrawal threshold)", "setting": "[2]; sciatic block (SB) 15 μg, D14", "value": "6.4 ± 3", "unit": "g"}, {"measurement": "PWT values (Paw Withdrawal threshold)", "setting": "[2]; sciatic block (SB) 15 μg, D21", "value": "3.7 ± 1", "unit": "g"}, {"measurement": "PWT values (Paw Withdrawal threshold)", "setting": "[2]; sciatic block (SB) 30 μg, D0 (5 h)", "value": "9.3 ± 6", "unit": "g"}, {"measurement": "PWT values (Paw Withdrawal threshold)", "setting": "[2]; sciatic block (SB) 30 μg, D1", "value": "14.7 ± 10", "unit": "g"}, {"measurement": "PWT values (Paw Withdrawal threshold)", "setting": "[2]; sciatic block (SB) 30 μg, D3", "value": "23.7 ± 11", "unit": "g"}, {"measurement": "PWT values (Paw Withdrawal threshold)", "setting": "[2]; sciatic block (SB) 30 μg, D7", "value": "23.0 ± 7", "unit": "g"}, {"measurement": "PWT values (Paw Withdrawal threshold)", "setting": "[2]; sciatic block (SB) 30 μg, D10", "value": "11.9 ± 3", "unit": "g"}, {"measurement": "PWT values (Paw Withdrawal threshold)", "setting": "[2]; sciatic block (SB) 30 μg, D14", "value": "11.4 ± 4", "unit": "g"}, {"measurement": "PWT values (Paw Withdrawal threshold)", "setting": "[2]; sciatic block (SB) 30 μg, D21", "value": "7.8 ± 3", "unit": "g"}, {"measurement": "effect of single peripheral sciatic block on mechanical allodynia (in words)", "setting": "[2]; single sciatic block, neuropathic rats", "value": "significantly alleviated mechanical allodynia"}, {"measurement": "maximal antiallodynic effect", "setting": "[2]; systemic injection (IM) 30 μg, at day 0 (5 hours post-sciatic blockade)", "value": "20.7±5.7", "unit": "% MPE"}, {"measurement": "sedation", "setting": "[3]; after clonidine injection in rats", "value": "mild transitory sedation"}, {"measurement": "motor blockade or motor deficit", "setting": "[3]; peripheral sciatic nerve block in rats", "value": "did not result into motor blockade or subsequent motor deficit"}, {"measurement": "effect of peripheral nerve block on thermal hyperalgesia (in words)", "setting": "[4]", "value": "alleviated the thermal hyperalgesia in a dose-related manner"}]}]}
